By IC50 is commonly meant the concentration that gives 50% inhibition.

The results in this text go back to patent publication US9771352B2, “Hydroxyalkyl-substituted phenyltriazole derivatives and uses thereof” (BAYER PHARMA AKTIENGESELLSCHAFT, priority 2014, dated 2017).

One experiment concerns the target T1, human V1a receptor (Homo sapiens, UniProt P37288).
T1 construct: expressed in transfected cells; host or cells: CHO K1 (ATCC), also stably transfected with modified aequorin
Nature of the experiment: Cellular in vitro assay for determining vasopressin receptor activity, V1a receptor cell line (photoprotein luminescence). In kind it is cell-based. To be noted: CHO cell line transfected with human V1a receptor; [Arg8]-vasopressin at EC50; compounds of the invention (Table 1A); read-out: IC50 hV1a. As to the method:
(§1) The identification of agonists and antagonists of the V1a and V2 vasopressin receptors from humans, rats and dogs as well as the quantification of the activity of the compounds of the invention is carried out using recombinant cell lines. These cell lines originally derive from a hamster's ovary epithelial cell (Chinese Hamster Ovary, CHO K1, ATCC: American Type Culture Collection, Manassas, Va. 20108, USA). The test cell lines constitutively express the human, rat or dog V1a or V2 receptors. In case of the […] V1a receptors, cells are also stably transfected with a modified form of the calcium-sensitive photoproteins aequorin (human and rat V1a) or obelin (dog V1a), which, after reconstitution with the cofactor coelenterazine, emit light when there are increases in free calcium concentrations [Rizzuto R, Simpson A W, Brini M, Pozzan T, Nature 358, 325-327 (1992); Illarionov B A, Bondar V S, Illarionova V A, Vysotski E S, Gene 153 (2), 273-274 (1995)]. The resulting vasopressin receptor cells react to stimulation of the recombinantly expressed V1a receptors by intracellular release of calcium ions, which can be quantified by the resulting photoprotein luminescence. The Gs-coupled V2 receptors are stably transfected into cell lines expressing the gene for firefly luciferase under control of a CRE-responsible promoter. Activation of V2 receptors induces the activation of the CRE-responsive promoter via cAMP increase, thereby inducing the expression of firefly luciferase. The light emitted by photoproteins of V1a cell lines as well as the light emitted by firefly luciferase of V2 cell lines corresponds to the activation or inhibition of the respective vasopressin receptor. The bioluminescence of the cell lines is detected using a suitable luminometer [Milligan G, Marshall F, Rees S, Trends in Pharmacological Sciences 17, 235-237 (1996)].
On the day before the assay, the cells are plated out in culture medium (DMEM/F12, 2% FCS, 2 mM glutamine, 10 mM HEPES, 5 μg/ml coelenterazine) in 384-well microtiter plates and kept in a cell incubator (96% humidity, 5% v/v CO2, 37° C.). On the day of the assay, test compounds in various concentrations are placed for 10 minutes in the wells of the microtiter plate before the agonist [Arg^8]-vasopressin at EC50 concentration is added. The resulting light signal is measured immediately in the luminometer.
(§2) Table 1A below lists individual IC50 values for the compounds of the invention (including diastereomeric mixtures as well as separated, enantiopure diastereomers) that were obtained from cell lines transfected with the human V1a or V2 receptor: […]

Another experiment concerns the target T2, human V2 receptor (Homo sapiens, UniProt P30518).
T2 construct: expressed in transfected cells; host or cells: CHO K1 (ATCC) expressing firefly luciferase under a CRE-responsive promoter
Nature of the experiment: Cellular in vitro assay for determining vasopressin receptor activity, V2 receptor cell line (CRE-luciferase). In kind it is cell-based. The note with it: CHO cell line transfected with human V2 receptor; [Arg8]-vasopressin at EC50; compounds of the invention (Table 1A); read-out: IC50 hV2. The procedure: as §1
On the day before the assay, the cells are plated out in culture medium (DMEM/F12, 2% FCS, 2 mM glutamine, 10 mM HEPES) in 384-well microtiter plates and kept in a cell incubator (96% humidity, 5% v/v CO2, 37° C.). […] Upon addition of the cell lysis reagent Triton and the substrate luciferin, luminescence of firefly luciferase is measured in a luminometer.
as §2

Structures are written as SMILES.

T2 sequence (P30518 whole entry): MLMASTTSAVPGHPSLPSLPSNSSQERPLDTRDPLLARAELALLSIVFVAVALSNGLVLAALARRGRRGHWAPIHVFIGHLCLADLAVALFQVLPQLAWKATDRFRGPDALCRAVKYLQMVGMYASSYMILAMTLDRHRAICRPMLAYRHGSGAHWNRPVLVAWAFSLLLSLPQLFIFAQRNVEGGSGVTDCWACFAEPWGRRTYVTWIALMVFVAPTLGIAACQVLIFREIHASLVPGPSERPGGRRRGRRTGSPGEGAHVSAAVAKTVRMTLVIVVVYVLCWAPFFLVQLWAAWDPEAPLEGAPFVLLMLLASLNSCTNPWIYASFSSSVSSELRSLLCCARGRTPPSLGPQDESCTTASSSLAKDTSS
T1 sequence (P37288 whole entry): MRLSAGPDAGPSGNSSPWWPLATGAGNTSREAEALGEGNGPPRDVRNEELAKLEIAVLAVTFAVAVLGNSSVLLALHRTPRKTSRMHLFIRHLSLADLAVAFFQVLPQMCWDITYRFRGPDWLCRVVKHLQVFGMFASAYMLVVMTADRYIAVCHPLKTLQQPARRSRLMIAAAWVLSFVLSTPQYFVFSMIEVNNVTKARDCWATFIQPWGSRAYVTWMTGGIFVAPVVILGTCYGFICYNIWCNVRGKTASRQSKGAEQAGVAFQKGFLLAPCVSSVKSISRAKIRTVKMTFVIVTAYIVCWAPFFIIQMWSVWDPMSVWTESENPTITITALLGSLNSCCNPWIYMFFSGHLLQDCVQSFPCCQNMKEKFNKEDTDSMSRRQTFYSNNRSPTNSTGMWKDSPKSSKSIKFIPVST

For `CC(O)c1nc(Cn2nc(-c3ccc(Cl)cc3)n(C[C@H](O)C(F)(F)F)c2=O)nn1-c1cccc(OC(F)F)c1` (mixture of isomers) [Example 55, 5-(4-Chlorophenyl)-2-({1-[3-(difluoromethoxy)phenyl]-5-[(1RS)-1-hydroxyethyl]-1H-1,2,4-triazol-3-yl}methyl)-4-[(2S)-3,3,3-trifluoro-2-hydroxypropyl]-2,4-dihydro-3H-1,2,4-triazol-3-one], the figures for the IC50 on human V1a receptor and at human V2 receptor were 14.8 nM and 4.2 nM, respectively.
On to `CC(O)c1nc(Cn2nc(-c3ccc(Cl)cc3)n(C[C@H](O)C(F)(F)F)c2=O)nn1-c1cc(F)ccc1Cl` (mixture of isomers) [Example 58, 2-({1-(2-Chloro-5-fluorophenyl)-5-[(1RS)-1-hydroxyethyl]-1H-1,2,4-triazol-3-yl}methyl)-5-(4-chlorophenyl)-4-[(2S)-3,3,3-trifluoro-2-hydroxypropyl]-2,4-dihydro-3H-1,2,4-triazol-3-one], for which the figures for the IC50 on human V1a receptor and on human V2 receptor were 0.2 nM and 1.5 nM, respectively.
The matching figures for `CC(O)c1nc(Cn2nc(-c3ccc(Cl)cc3)n(C[C@H](O)C(F)(F)F)c2=O)nn1-c1cccc(Cl)c1Cl` (mixture of isomers) [Example 61, 5-(4-Chlorophenyl)-2-({1-(2,3-dichlorophenyl)-5-[(1RS)-1-hydroxyethyl]-1H-1,2,4-triazol-3-yl}-methyl)-4-[(2S)-3,3,3-trifluoro-2-hydroxypropyl]-2,4-dihydro-3H-1,2,4-triazol-3-one]: 3.2 nM and 0.2 nM.
Take `CC(O)c1nc(Cn2nc(-c3ccc(Cl)cc3)n(C[C@H](O)C(F)(F)F)c2=O)nn1-c1cccc(F)c1F` (mixture of isomers) [Example 64, 5-(4-Chlorophenyl)-2-({1-(2,3-difluorophenyl)-5-[(1RS)-1-hydroxyethyl]-1H-1,2,4-triazol-3-yl}-methyl)-4-[(2S)-3,3,3-trifluoro-2-hydroxypropyl]-2,4-dihydro-3H-1,2,4-triazol-3-one]: the IC50 is 8.1 nM on human V1a receptor and 5.1 nM at human V2 receptor.
In the same order, the values of `CC(O)c1nc(Cn2nc(-c3ccc(Cl)cc3)n(C[C@H](O)C(F)(F)F)c2=O)nn1-c1cccc(F)c1` (mixture of isomers) [Example 75, 5-(4-Chlorophenyl)-2-({1-(3-fluorophenyl)-5-[(1RS)-1-hydroxyethyl]-1H-1,2,4-triazol-3-yl}-methyl)-4-[(2S)-3,3,3-trifluoro-2-hydroxypropyl]-2,4-dihydro-3H-1,2,4-triazol-3-one] are 2.9 nM and 6.6 nM.
For the molecule `CC(O)c1nc(Cn2nc(-c3ccc(Cl)cc3)n(C[C@H](O)C(F)(F)F)c2=O)nn1-c1cccc(Cl)c1` (mixture of isomers) [Example 78, 5-(4-Chlorophenyl)-2-({1-(3-chlorophenyl)-5-[(1RS)-1-hydroxyethyl]-1H-1,2,4-triazol-3-yl}-methyl)-4-[(2S)-3,3,3-trifluoro-2-hydroxypropyl]-2,4-dihydro-3H-1,2,4-triazol-3-one], the IC50 on human V1a receptor was 10.4 nM; on human V2 receptor it was 3.1 nM.
The matching figures for `COc1ccccc1-n1nc(Cn2nc(-c3ccc(Cl)cc3)n(C[C@H](O)C(F)(F)F)c2=O)nc1C(C)O` (single isomer, unassigned) [Example 11]: 0.4 nM and 0.3 nM.
As for `COc1ccccc1-n1nc(Cn2nc(-c3ccc(Cl)cc3)n(C[C@H](O)C(F)(F)F)c2=O)nc1C(C)O` (single isomer, unassigned) [Example 12], the IC50 on human V1a receptor came to 1.3 nM; at human V2 receptor it was 1.1 nM.
In the same order, the values of `CC(O)c1nc(Cn2nc(-c3ccc(Cl)cc3)n(C[C@H](O)C(F)(F)F)c2=O)nn1-c1ccccc1` (single isomer, unassigned) [Example 18] are 14.1 nM and 8.6 nM.
With `CC(O)c1nc(Cn2nc(-c3ccc(Cl)cc3)n(C[C@H](O)C(F)(F)F)c2=O)nn1-c1cccc(C(F)F)c1` (single isomer, unassigned) [Example 20], the figures for the IC50 at human V1a receptor and on human V2 receptor were 3.8 nM and 0.8 nM, respectively.
As to `CC(O)c1nc(Cn2nc(-c3ccc(Cl)cc3)n(C[C@H](O)C(F)(F)F)c2=O)nn1-c1cccc(C(F)F)c1` (single isomer, unassigned) [Example 21], the figures for the IC50 at human V1a receptor and at human V2 receptor were 57.8 nM and 2.2 nM, respectively.
With `CC(O)c1nc(Cn2nc(-c3ccc(Cl)cc3)n(C[C@H](O)C(F)(F)F)c2=O)nn1-c1cccc(C(F)(F)F)c1` (single isomer, unassigned) [Example 23], the IC50 came out at 12.2 nM at human V1a receptor and 0.9 nM at human V2 receptor.
Regarding `CC(O)c1nc(Cn2nc(-c3ccc(Cl)cc3)n(C[C@H](O)C(F)(F)F)c2=O)nn1-c1cccc(C(F)(F)F)c1` (single isomer, unassigned) [Example 24], the IC50 at human V1a receptor came to 120 nM; on human V2 receptor, 2 nM.
For `CC(O)c1nc(Cn2nc(-c3ccc(Cl)cc3)n(C[C@H](O)C(F)(F)F)c2=O)nn1-c1cc(F)cc(F)c1` (single isomer, unassigned) [Example 26], the values for the IC50 on human V1a receptor and at human V2 receptor were 3.1 nM and 3 nM, respectively.
In the same order, the values of `CC(O)c1nc(Cn2nc(-c3ccc(Cl)cc3)n(C[C@H](O)C(F)(F)F)c2=O)nn1-c1cc(F)cc(F)c1` (single isomer, unassigned) [Example 27] are 43.7 nM and 7.7 nM.
On to `Cc1cccc(-n2nc(Cn3nc(-c4ccc(Cl)cc4)n(C[C@H](O)C(F)(F)F)c3=O)nc2C(C)O)c1` (single isomer, unassigned) [Example 30], for which the IC50 is 71.6 nM at human V1a receptor and 0.4 nM on human V2 receptor.
Regarding `CCc1ccccc1-n1nc(Cn2nc(-c3ccc(Cl)cc3)n(C[C@H](O)C(F)(F)F)c2=O)nc1C(C)O` (single isomer, unassigned) [Example 32], the IC50 on human V1a receptor is 0.9 nM; on human V2 receptor, 1 nM.
The matching figures for `CCc1ccccc1-n1nc(Cn2nc(-c3ccc(Cl)cc3)n(C[C@H](O)C(F)(F)F)c2=O)nc1C(C)O` (single isomer, unassigned) [Example 33]: 1.6 nM and 2.3 nM.
Turning to `CC(O)c1nc(Cn2nc(-c3ccc(Cl)cc3)n(C[C@H](O)C(F)(F)F)c2=O)nn1-c1ccc(F)cc1Cl` (single isomer, unassigned) [Example 35], the IC50 on human V1a receptor came to 0.5 nM; on human V2 receptor it was 1.6 nM.
In the same order, the values of `CC(O)c1nc(Cn2nc(-c3ccc(Cl)cc3)n(C[C@H](O)C(F)(F)F)c2=O)nn1-c1ccc(F)cc1Cl` (single isomer, unassigned) [Example 36] are 0.8 nM and 2.8 nM.
With `COc1ccc(F)cc1-n1nc(Cn2nc(-c3ccc(Cl)cc3)n(C[C@H](O)C(F)(F)F)c2=O)nc1C(C)O` (single isomer, unassigned) [Example 38], the IC50 on human V1a receptor stood at 0.6 nM; at human V2 receptor it was 0.9 nM.
As to `COc1ccc(F)cc1-n1nc(Cn2nc(-c3ccc(Cl)cc3)n(C[C@H](O)C(F)(F)F)c2=O)nc1C(C)O` (single isomer, unassigned) [Example 39], the IC50 came out at 1.5 nM on human V1a receptor and 3.5 nM at human V2 receptor.
The matching figures for `CC(O)c1nc(Cn2nc(-c3ccc(Cl)cc3)n(C[C@H](O)C(F)(F)F)c2=O)nn1-c1ccccc1F` (single isomer, unassigned) [Example 41]: 1.8 nM and 7.9 nM.
In the same order, the values of `CC(O)c1nc(Cn2nc(-c3ccc(Cl)cc3)n(C[C@H](O)C(F)(F)F)c2=O)nn1-c1ccccc1F` (single isomer, unassigned) [Example 42] are 5.1 nM and 12.7 nM.
Consider `CC(O)c1nc(Cn2nc(-c3ccc(Cl)cc3)n(C[C@H](O)C(F)(F)F)c2=O)nn1-c1ccc(F)c(Cl)c1` (single isomer, unassigned) [Example 44], for which the results for the IC50 on human V1a receptor and on human V2 receptor were 6.1 nM and 1.2 nM, respectively.
In the same order, the values of `CC(O)c1nc(Cn2nc(-c3ccc(Cl)cc3)n(C[C@H](O)C(F)(F)F)c2=O)nn1-c1ccc(F)c(Cl)c1` (single isomer, unassigned) [Example 45] are 92.1 nM and 3.3 nM.
